Results from US20110293756A1, “PREVENTIVES OR REMEDIES FOR TUMOR OR HUMAN PAPILLOMAVIRAL DISEASE” (priority 2001, published 2011).

Experiments:
[1] = system: cervical dysplasia (CIN1, CIN2); assay: Clinical test in cervical dysplasia CIN1 / CIN2; format: in vivo, human; settings: 2 months after administration; extracts 2 g/day, folic acid 15 mg/day; Yokunin 8, hot water 3, ethanol 3, folic acid 5, enzyme/fermentation 6, with folic acid 8 cases; untreated 0 of 15
Description: According to the CIN classification, CIN1 and CIN2 correspond to mild dysplasia and moderate dysplasia, respectively, and CIN3 includes severe dysplasia and the above CIS. Here, the clinical effect of the pharmaceutical preparations of the present invention against the CIN1 and CIN2 is presented.
A test was conducted for cases, which had been diagnosed to be class III by cytological diagnosis and as having mild dysplasia or moderate dysplasia by histological diagnosis, and carefully followed up without conization, and for which informed consent had been obtained.
Further, the enzyme extract of Coix seeds with husks (3 cases)- or the fermentation extract (3 cases) (daily dose of 2 g of the respective extract ingredients)-administered group (6 cases), the enzyme extract of Coix seeds with husks (4 cases) or the fermentation extract (4 cases) (respective daily dose of 2 g as the extract ingredient) compounded with folic acid (15 mg/day)-administered group (8 cases) were observed. […] Test groups are as shown below. Each group was observed.
Each pharmaceutical preparation was administered over a long period (1 year), and cytological diagnosis and colposcopy were performed every 3 to 4 months.

CIN I or CIN II = settings: 10 mg/day, 154 cases, 6 months; cited from earlier work
[2] = system: cervical carcinoma in situ (CIS); assay: Clinical test in cervical carcinoma in situ (CIS), stage 0; format: in vivo, human; settings: 2 to 6 weeks of administration; extracts 2 g/day, folic acid 15 mg/day; group A 21, B 15 (8+7), C 8, D 12, E 11 cases; control 0 of 42
Description: A method for the clinical testing was performed in the manner described below under sufficient informed consent. Colposcopy was performed for patients who had been diagnosed to be class IV or V based on the cytobiosis of cervical cancer, portions of their lesions were subjected to biopsy, and then administration of various pharmaceutical preparations was immediately started. Test groups are as shown below. Each group was observed. […]

[3] = system: koilocytic atypia, mild dysplasia and moderate dysplasia; settings: 5 mg/day, 331 patients, six months; cited from earlier work

Nc1nc2ncc(CNc3ccc(C(=O)N[C@@H](CCC(=O)O)C(=O)O)cc3)nc2c(=O)[nH]1 [folic acid]
cases showing improvement in both cytological diagnosis and colposcopy findings [1]: None of the cases | effect compared with the group orally administered with placebo (CIN I or CIN II): no difference was also found | cases showing disappearance of carcinoma in situ in postoperative histological tests [2]: none of the cases | improving effect compared with the group orally administered with placebo [3]: no difference was found
